# US20230391778A1, “INDOLIN-2-ONE OR PYRROLO -PYRIDIN -2 -ONE DERIVATIVES” (Hoffmann-La Roche Inc., priority 2014, published 2023)
# Where a name gives a salt, the structure may show the parent alone.
# Target: T1, mouse ENT-1 transporter (Mus musculus, UniProt Q9JIM1)
# T1 construct: expressed in transfected cells
# T1 sequence (Q9JIM1 1-460): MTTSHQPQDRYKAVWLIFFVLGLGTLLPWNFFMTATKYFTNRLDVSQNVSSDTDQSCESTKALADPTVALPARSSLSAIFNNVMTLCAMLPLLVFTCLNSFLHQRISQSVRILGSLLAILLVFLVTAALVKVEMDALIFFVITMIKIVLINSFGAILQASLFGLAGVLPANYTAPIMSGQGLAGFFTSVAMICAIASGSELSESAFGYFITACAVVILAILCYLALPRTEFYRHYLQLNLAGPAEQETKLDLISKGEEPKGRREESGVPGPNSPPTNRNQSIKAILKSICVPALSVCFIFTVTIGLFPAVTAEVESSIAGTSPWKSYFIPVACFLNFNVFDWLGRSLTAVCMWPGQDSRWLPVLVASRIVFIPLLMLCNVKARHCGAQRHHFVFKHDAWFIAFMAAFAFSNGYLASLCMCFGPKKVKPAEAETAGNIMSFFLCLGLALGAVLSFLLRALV
# Test: Measure of adenosine transport activity (ENT1 adenosine uptake inhibition)
# Format: cell-based
# Settings: stable cells expressing mouse ENT-1, [2,8-3H]-adenosine 6 nM, 20 min
# Protocol: To measure adenosine transport activity of ENT-1 mammalian cells, stable cells expressing the mouse ENT-1 transporter were plated on day 1 in 96-well culture plates at the density of 60,000 cells/well, in complete DMEM/F12 medium supplemented with glutamax, 10% FBS and 10 μg/ml puromycin. On day 2, the medium was aspirated and the cells were washed twice with uptake buffer (10 mM Hepes-Tris, pH 7.4 containing 150 mM NaCl, 1 mM CaCl2), 2.5 mM KCl, 2.5 mM MgSO4, 10 mM D-glucose) (UB). For inhibition experiments, cells were then incubated at RT with various concentrations of compounds with 1% DMSO final. Non-specific uptake was defined in the presence of 10 μM S-(4-Nitrobenzyl)-6-thioinosine (NBTI, Sigma Cat #N2255).
# The plates were then incubated for 20 min with gentle shaking and the reaction was stopped by aspiration of the mixture and washing (three times) with ice-cold UB. The cells were lysed by the addition of scintillation liquid, shaken 3 hours and the radioactivity in the cells was estimated using a microplates scintillation counter (TopCount NXT, Packard).
row,Compound,IC50 [nM]
1,"Cc1ncc(-c2ccc3c(c2)N(c2cn(C)c(C)n2)C(=O)C3(C)C)cn1 [Example 65, 1-(1,2-Dimethyl-1H-imidazol-4-yl)-3,3-dimethyl-6-(2-methylpyrimidin-5-yl)indolin-2-one]",6740
2,"Cc1cc(N2C(=O)C(C)(C)c3ccc(-c4cnc(C)nc4)cc32)cc(C)n1 [Example 66, 1-(2,6-Dimethylpyridin-4-yl)-3,3-dimethyl-6-(2-methylpyrimidin-5-yl)indolin-2-one]",1140
3,"Cc1cc(C)nc(N2C(=O)C(C)(C)c3ccc(-c4cnc(C)nc4)cc32)n1 [Example 67, 1-(4,6-Dimethylpyrimidin-2-yl)-3,3-dimethyl-6-(2-methylpyrimidin-5-yl)indolin-2-one]",5630
4,"Cc1cc(N2C(=O)C(C)(C)c3ccc(-c4cnc(C)nc4)cc32)nc(C)n1 [Example 68, 1-(2,6-Dimethylpyrimidin-4-yl)-3,3-dimethyl-6-(2-methylpyrimidin-5-yl)indolin-2-one]",502
5,"Cc1ncc(-c2ccc3c(c2)N(c2cc(C)c(C)cn2)C(=O)C3(C)C)cn1 [Example 69, 1-(4,5-Dimethylpyridin-2-yl)-3,3-dimethyl-6-(2-methylpyrimidin-5-yl)indolin-2-one]",1280
6,"Cc1ncc(-c2ccc3c(c2)N(c2cnc(C)c(C)c2)C(=O)C3(C)C)cn1 [Example 75, 1-(5,6-dimethylpyridin-3-yl)-3,3-dimethyl-6-(2-methylpyrimidin-5-yl)indolin-2-one]",827
7,"Cc1ncc(-c2ccc3c(c2)N(c2ncccn2)C(=O)C3(C)C)cn1 [Example 79, 3,3-dimethyl-6-(2-methylpyrimidin-5-yl)-1-(pyrimidin-2-yl)indolin-2-one]",3880
8,"Cc1ncc(-c2ccc3c(c2)N(c2cncnc2C)C(=O)C3(C)C)cn1 [Example 84, 3,3-dimethyl-6-(2-methylpyrimidin-5-yl)-1-(4-methylpyrimidin-5-yl)indolin-2-one]",15600
9,"Cc1ncc(-c2ccc3c(c2)N(c2ncc(C)[nH]2)C(=O)C3(C)C)cn1 [Example 88, 3,3-dimethyl-1-(4-methyl-1H-imidazol-2-yl)-6-(2-methylpyrimidin-5-yl)indolin-2-one]",7660
10,"Cc1ncc(-c2ccc3c(c2)N(c2ncc[nH]2)C(=O)C3(C)C)cn1 [Example 92, 1-(1H-imidazol-2-yl)-3,3-dimethyl-6-(2-methylpyrimidin-5-yl)indolin-2-one]",1290
11,"CCn1ccc(N2C(=O)C(C)(C)c3ccc(-c4cnc(C)nc4)cc32)n1 [Example 94, 1-(1-ethyl-1H-pyrazol-3-yl)-3,3-dimethyl-6-(2-methylpyrimidin-5-yl)indolin-2-one]",1160
12,"Cc1ncc(-c2ccc3c(c2)N(c2cnc(C#N)cn2)C(=O)C3(C)C)cn1 [Example 96, 5-(3,3-dimethyl-6-(2-methylpyrimidin-5-yl)-2-oxoindolin-1-yl)pyrazine-2-carbonitrile]",154
13,"Cc1ncc(-c2ccc3c(c2)N(c2cnc(CO)nc2)C(=O)C3(C)C)cn1 [Example 102, 1-(2-(hydroxymethyl)pyrimidin-5-yl)-3,3-dimethyl-6-(2-methylpyrimidin-5-yl)indolin-2-one]",10200
14,"Cc1ncc(-c2ccc3c(c2)N(c2cnc(CF)nc2)C(=O)C3(C)C)cn1 [Example 108, 1-(2-(fluoromethyl)pyrimidin-5-yl)-3,3-dimethyl-6-(2-methylpyrimidin-5-yl)indolin-2-one]",1900
15,"Cc1ncc(-c2ccc3c(c2)N(c2cnc(Cl)nc2)C(=O)C3(C)C)cn1 [Example 114, 1-(2-chloropyrimidin-5-yl)-3,3-dimethyl-6-(2-methylpyrimidin-5-yl)indolin-2-one]",456
16,"Cc1ncc(-c2ccc3c(c2)N(c2cc(Cl)nc(Cl)c2)C(=O)C3(C)C)cn1 [Example 115, 1-(2,6-dichloropyridin-4-yl)-3,3-dimethyl-6-(2-methylpyrimidin-5-yl)indolin-2-one]",144
17,"Cc1ncc(-c2ccc3c(c2)N(c2cnc(Cl)cn2)C(=O)C3(C)C)cn1 [Example 117, 1-(5-chloropyrazin-2-yl)-3,3-dimethyl-6-(2-methylpyrimidin-5-yl)indol-2-one]",35
18,"Cc1cc(N2C(=O)C(C)(C)c3ccc(-c4cnc(C)nc4)cc32)cc(Cl)n1 [Example 119, 1-(2-chloro-6-methylpyridin-4-yl)-3,3-dimethyl-6-(2-methylpyrimidin-5-yl)indolin-2-one]",335
19,"Cc1cnnc(N2C(=O)C(C)(C)c3ccc(-c4cnc(C)nc4)cc32)c1 [Example 122, 3,3-dimethyl-1-(5-methylpyridazin-3-yl)-6-(2-methylpyrimidin-5-yl)indolin-2-one]",626
20,"Cc1ncc(-c2ccc3c(c2)N(c2nc(C)ns2)C(=O)C3(C)C)cn1 [Example 123, 3,3-dimethyl-1-(3-methyl-1,2,4-thiadiazol-5-yl)-6-(2-methylpyrimidin-5-yl)indolin-2-one]",694

# The remaining compounds from weak to strong by IC50, led by results:
row,IC50 [nM],Compound
1,18400,"Cc1ncc(-c2ccc3c(c2)N(c2cnc(CN)nc2)C(=O)C3(C)C)cn1 [Example 103, 1-[2-(aminomethyl)pyrimidin-5-yl]-3,3-dimethyl-6-(2-methylpyrimidin-5-yl)indol-2-one]"
2,7000,"Cc1ncc(-c2ccc3c(c2)N(c2nnn(C)n2)C(=O)C3(C)C)cn1 [Example 105, 3,3-dimethyl-1-(2-methyl-2H-tetrazol-5-yl)-6-(2-methylpyrimidin-5-yl)indolin-2-one]"
3,5240,"Cc1ncc(-c2ccc3c(c2)N(c2c[nH]cn2)C(=O)C3(C)C)cn1 [Example 85, 1-(1H-imidazol-4-yl)-3,3-dimethyl-6-(2-methylpyrimidin-5-yl)indolin-2-one]"
4,5090,"Cc1ccnc(N2C(=O)C(C)(C)c3ccc(-c4cnc(C)nc4)cc32)n1 [Example 64, 3,3-Dimethyl-1-(4-methylpyrimidin-2-yl)-6-(2-methylpyrimidin-5-yl)indolin-2-one]"
5,4660,"Cc1ncc(-c2ccc3c(c2)N(c2cn[nH]c2)C(=O)C3(C)C)cn1 [Example 83, 3,3-dimethyl-6-(2-methylpyrimidin-5-yl)-1-(1H-pyrazol-4-yl)indolin-2-one]"
6,4330,"Cc1ncc(-c2ccc3c(c2)N(c2cnccc2C)C(=O)C3(C)C)cn1 [Example 99, 3,3-dimethyl-1-(4-methylpyridin-3-yl)-6-(2-methylpyrimidin-5-yl)indolin-2-one]"
7,3780,"Cc1ccnc(N2C(=O)C(C)(C)c3ccc(-c4cnc(C)nc4)cc32)c1 [Example 60, 3,3-Dimethyl-1-(4-methylpyridin-2-yl)-6-(2-methylpyrimidin-5-yl)indolin-2-one]"
8,2190,"Cc1ncc(-c2ccc3c(c2)N(c2ccc(C)[n+]([O-])n2)C(=O)C3(C)C)c[n+]1[O-] [Example 107, 3-(3,3-dimethyl-6-(2-methyl-1-oxidopyrimidin-5-yl)-2-oxoindolin-1-yl)-6-methylpyridazine 1-oxide]"
9,2100,"Cc1ncc(-c2ccc3c(c2)N(c2cccnn2)C(=O)C3(C)C)cn1 [Example 76, 3,3-dimethyl-6-(2-methylpyrimidin-5-yl)-1-(pyridazin-3-yl)indolin-2-one]"
10,2070,"Cc1ncc(-c2ccc3c(c2)N(c2cn(C)nn2)C(=O)C3(C)C)cn1 [Example 87, 3,3-dimethyl-1-(1-methyl-1H-1,2,3-triazol-4-yl)-6-(2-methylpyrimidin-5-yl)indolin-2-one]"
11,1500,"Cc1ncc(-c2ccc3c(c2)N(c2cnn(C)c2)C(=O)C3(C)C)cn1 [Example 80, 3,3-dimethyl-1-(1-methyl-1H-pyrazol-4-yl)-6-(2-methylpyrimidin-5-yl)indolin-2-one]"
12,946,"Cc1cccc(N2C(=O)C(C)(C)c3ccc(-c4cnc(C)nc4)cc32)n1 [Example 61, 3,3-Dimethyl-1-(6-methylpyridin-2-yl)-6-(2-methylpyrimidin-5-yl)indolin-2-one]"
13,670,"Cc1cncc(N2C(=O)C(C)(C)c3ccc(-c4cnc(C)nc4)cc32)n1 [Example 63, 3,3-Dimethyl-1-(6-methylpyrazin-2-yl)-6-(2-methylpyrimidin-5-yl)indolin-2-one]"
14,669,"Cc1ncc(-c2ccc3c(c2)N(c2cc(Cl)nc(C)n2)C(=O)C3(C)C)cn1 [Example 121, 1-(6-chloro-2-methylpyrimidin-4-yl)-3,3-dimethyl-6-(2-methylpyrimidin-5-yl)indolin-2-one]"
15,657,"Cc1cncc(N2C(=O)C(C)(C)c3ccc(-c4cnc(C)nc4)cc32)c1 [Example 59, 3,3-Dimethyl-1-(5-methylpyridin-3-yl)-6-(2-methylpyrimidin-5-yl)indolin-2-one]"
16,423,"Cc1cc(N2C(=O)C(C)(C)c3ccc(-c4cnc(C)nc4)cc32)[nH]n1 [Example 86, 3,3-dimethyl-1-(3-methyl-1H-pyrazol-5-yl)-6-(2-methylpyrimidin-5-yl)indolin-2-one hydrochloride]"
